Biological target: T1, rat ASIC1a (Rattus norvegicus, UniProt P55926)
T1 construct: expressed in transfected cells
T1 sequence (P55926 1-526): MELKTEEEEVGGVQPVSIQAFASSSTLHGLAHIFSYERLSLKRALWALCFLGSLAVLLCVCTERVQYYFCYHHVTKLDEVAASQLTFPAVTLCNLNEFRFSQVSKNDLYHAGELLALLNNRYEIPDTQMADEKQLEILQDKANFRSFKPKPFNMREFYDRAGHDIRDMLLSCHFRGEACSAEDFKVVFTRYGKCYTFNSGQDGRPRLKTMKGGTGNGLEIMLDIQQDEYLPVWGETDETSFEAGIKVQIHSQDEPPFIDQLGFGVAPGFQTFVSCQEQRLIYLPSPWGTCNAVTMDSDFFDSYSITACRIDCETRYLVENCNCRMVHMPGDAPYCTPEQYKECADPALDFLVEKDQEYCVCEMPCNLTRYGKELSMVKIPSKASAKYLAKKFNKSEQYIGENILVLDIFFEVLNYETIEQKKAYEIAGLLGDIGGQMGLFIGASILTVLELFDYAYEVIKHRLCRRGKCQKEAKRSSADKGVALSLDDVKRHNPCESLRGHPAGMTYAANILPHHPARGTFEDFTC
Assay: Kinetics of onset of and recovery (wash) from compound inhibition
Type: cell-based
Conditions: holding pH 8.2, pH 6.0 test pulses
Experimental: Chinese Hamster Ovary (CHO) cells stably expressing rat ASIC1a were cultured in Ham’s F12, supplemented with 10% FBS, 1% penicillin–streptomycin and 500 µg/mL G418 and incubated at 37 °C with 5% CO2. Transient transfections of rASIC1a and cASIC1 wild-type or mutant channels in CHO cells were performed with Lipofectamine 3000 (Thermo Fisher Scientific) according to the manufacturer’s recommendations. The green fluorescent protein (GFP) cDNA (at 1/10 the amount of channel cDNA) was co-transfected with channel cDNA to aid the identification of transfected cells under the microscope in patch clamp experiments. All cDNAs were sequence verified.
Cells were freshly dissociated with CellStripper (Corning) and dispersed in a chamber on the stage of an inverted microscope. Upon formation of the whole-cell conformation, the cell was lifted from the bottom of the chamber and placed at the tip of a tubing perfusing an extracellular solution containing (in mM): 149 NaCl, 2 CaCl2, 4 KCl, 1 MgCl2, 5 glucose, 10 HEPES, pH 7.4, 310 mOsm/L. Extracellular solutions at more basic or acidic pHs were made by titrating the above pH 7.4 solution with NaOH or HCl (5 mM MES was added to solutions at pH 6.0 and lower). Pipette electrodes were filled with an intracellular solution containing (in mM): 135 KCl, 4 MgATP, 0.3 Na2GTP, 10 EGTA, and 20 HEPES, pH 7.2, 290 mOsm/L.
All recordings were performed at room temperature using an Axopatch 200B amplifier and pClamp 11 software (Molecular Devices). Currents were measured by whole-cell patch clamp, digitized at 10 kHz and lowpass filtered at 2 kHz. Series resistance was 75% compensated. Responses were elicited by rapid perfusion of acidic solutions using the SF-77B Fast-Step Perfusion device (Warner Instruments) for 40 ms once every 30 s (unless indicated otherwise) and recorded till steady state was reached. The holding potential was 0 mV unless indicated otherwise.
Baseline values (i.e., current amplitudes at the conditioning pH) were subtracted to obtain responses evoked by the test pH. Responses were normalized for each cell before averaging (see figure legends for more detail on normalization for each type of experiment). Concentration–response data were fitted to a logistic function of the form: R = (A1–A2)/(1 + (C/C0)^h)+A2, where R is the normalized response, C is either pH or compound concentration, C0 is the pH/concentration at which half-maximal response occurs (pH50 or IC50), h is the Hill coefficient, and A1 and A2 are constants. Kinetic parameters were obtained by fitting the data with either a single or double exponential function. Fitted data are shown as solid, dashed, or dotted curves.

time constant of current inhibition (100 nM): 1.6 ± 0.1 s
time constant of current inhibition (1 µM): 0.2248 ± 0.0189 s
Structure (SMILES): COc1ccc(Oc2ccc(-c3nc4cc(C(=N)N)ccc4[nH]3)cc2)cc1OC [JNJ-799760]

Reference: article PMC7873226, “Molecular mechanism and structural basis of small-molecule modulation of the gating of acid-sensing ion channel 1” (Communications Biology, 2021)
